Assays:
primary cortical neurons [1] = format: cell-based
primary cortical neurons [2] = format: cell-based; remark: listed apart in the source
primary cortical neurons [3] = format: cell-based; remark: listed apart in the source
[4] = system: mouse middle cerebral artery occlusion (MCAO) stroke model; conditions: in vivo
[5] = system: mouse middle cerebral artery occlusion (MCAO) stroke model; conditions: in vivo; remark: listed apart in the source
primary cortical neurons [6] = format: cell-based; remark: listed apart in the source

| SMILES | neuronal cell death (LDH), in words (primary cortical neurons [1]) | relative neuronal survival (MTT), in words (primary cortical neurons [2]) | less LDH release (primary cortical neurons [3]) | relative neuronal death (LDH), in words (primary cortical neurons [3]) | improvement of neurological score [4] | Horizontal Activity [5] | No. of Movements [5] | Rest Time [5] | Stereotypy Counts [5] | Total Distance [5] | Vertical Activity [5] | ROS production, in words (primary cortical neurons [6]) |
| --- | --- | --- | --- | --- | --- | --- | --- | --- | --- | --- | --- | --- |
| C[C@@H](NC(=O)[C@@H](N)Cc1ccc(O)cc1)C(=O)NCC(=O)N[C@@H](Cc1ccccc1)C(=O)NNC(=O)[C@H](Cc1ccccc1)NC(=O)CNC(=O)[C@@H](C)NC(=O)[C@@H](N)Cc1ccc(O)cc1 [biphalin] | significantly decreased neuronal cell death | significantly improved relative neuronal survival | 18.4% | significantly decreased relative neuronal death | 25.5% | 760 ± 75 | 42 ± 6 | 240 ± 7 s | 390 ± 46 | 650 ± 81 CM | 28 ± 3 | – |
| O=C1CC[C@@]2(O)[C@H]3Cc4ccc(O)c5c4[C@@]2(CCN3CC2CC2)[C@H]1O5 [NTX, naltrexone] | No statistical significant difference | – | – | – | – | – | – | – | – | – | – | did not show significant decrease in ROS production |

Source: patent publication US20180127465A1 (priority 2015, published 2018)
